# From PubChem BioAssay (NCI)
#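 Where inhibition never reached the appropriate level, the endpoint shown equals the highest concentration tested. Otherwise, values were interpolated linearly from a five-concentration, 48-hour dose response in 96-well plates. GI50: concentration for 50% inhibition of growth. At the TGI there is no net growth.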
# Legend:
# Assay in all cases: inhibition of tumour cell growth, NCI panel, 48 h
# [1] = tested on: 786-0 renal
# [2] = tested on: A498 renal
# [3] = tested on: A549 NSCLC
# [4] = tested on: ACHN renal
# [5] = tested on: BT-549 breast
# [6] = tested on: CAKI-1 renal
# [7] = tested on: COLO 205 colon
# [8] = tested on: DU-145 prostate
# [9] = tested on: EKVX NSCLC
# [10] = tested on: HCC-2998 colon
# [11] = tested on: HCT-116 colon
# [12] = tested on: HCT-15 colon
# [13] = tested on: HL-60(TB) leukemia
# [14] = tested on: HOP-62 NSCLC
# [15] = tested on: HOP-92 NSCLC
# [16] = tested on: HS 578T breast
# [17] = tested on: HT29 colon
# [18] = tested on: K-562 leukemia
# [19] = tested on: KM12 colon
# [20] = tested on: LOX IMVI melanoma
# [21] = tested on: M14 melanoma
# [22] = tested on: MALME-3M melanoma
# [23] = tested on: MCF7 breast
# [24] = tested on: MDA-MB-231 breast
# [25] = tested on: MDA-MB-435
# [26] = tested on: MOLT-4 leukemia
# [27] = tested on: NCI-H226 lung
# [28] = tested on: NCI-H23 lung
# [29] = tested on: NCI-H460 lung
# [30] = tested on: NCI-H522 lung
# [31] = tested on: NCI/ADR-RES ovarian
# [32] = tested on: OVCAR-3 ovarian
# [33] = tested on: OVCAR-4 ovarian
# [34] = tested on: OVCAR-5 ovarian
# [35] = tested on: OVCAR-8 ovarian
# [36] = tested on: PC-3 prostate
# [37] = tested on: RPMI-8226 leukemia
# [38] = tested on: SF-268 CNS
# [39] = tested on: SF-295 CNS
# [40] = tested on: SF-539 CNS
# [41] = tested on: SK-MEL-2 melanoma
# [42] = tested on: SK-MEL-28 melanoma
# [43] = tested on: SK-MEL-5 melanoma
# [44] = tested on: SK-OV-3 ovarian
# [45] = tested on: SN12C renal
# [46] = tested on: SNB-19 CNS
# [47] = tested on: SNB-75 CNS
# [48] = tested on: SW-620 colon
# [49] = tested on: T-47D breast
# [50] = tested on: TK-10 renal
# [51] = tested on: U251 CNS
# [52] = tested on: UACC-257 melanoma
# [53] = tested on: UACC-62 melanoma
# [54] = tested on: UO-31 renal
smiles,measurement,setting,value
COc1ccc(C(=O)/C=C/c2c(OC)cc(OC)cc2OC)c(OC)c1,GI50,[1],15.4 µM
same,TGI,[1],> 100 µM
same,GI50,[2],2.23 µM
same,TGI,[2],8.87 µM
same,GI50,[3],5.36 µM
same,TGI,[3],> 100 µM
same,GI50,[4],21.5 µM
same,TGI,[4],> 100 µM
same,GI50,[5],83.8 µM
same,TGI,[5],> 100 µM
same,GI50,[6],1.44 µM
same,TGI,[6],> 100 µM
same,GI50,[7],3.38 µM
same,TGI,[7],> 100 µM
same,GI50,[8],3.21 µM
same,TGI,[8],> 100 µM
same,GI50,[9],4.2 µM
same,TGI,[9],> 100 µM
same,GI50,[10],2.51 µM
same,TGI,[10],> 100 µM
same,GI50,[11],3.31 µM
same,TGI,[11],> 100 µM
same,GI50,[12],2.42 µM
same,TGI,[12],> 100 µM
same,GI50,[13],3.64 µM
same,TGI,[13],> 100 µM
same,GI50,[14],11.8 µM
same,TGI,[14],> 100 µM
same,GI50,[15],16.6 µM
same,TGI,[15],95.2 µM
same,GI50,[16],5.23 µM
same,TGI,[16],> 100 µM
same,GI50,[17],0.881 µM
same,TGI,[17],> 100 µM
same,GI50,[18],0.853 µM
same,TGI,[18],> 100 µM
same,GI50,[19],1.21 µM
same,TGI,[19],> 100 µM
same,GI50,[20],3.7 µM
same,TGI,[20],> 100 µM
same,GI50,[21],2.59 µM
same,TGI,[21],> 100 µM
same,GI50,[22],7.44 µM
same,TGI,[22],> 100 µM
same,GI50,[23],3.85 µM
same,TGI,[23],> 100 µM
same,GI50,[24],5.76 µM
same,TGI,[24],> 100 µM
same,GI50,[25],0.275 µM
same,TGI,[25],0.947 µM
same,GI50,[26],> 100 µM
same,TGI,[26],> 100 µM
same,GI50,[27],21.3 µM
same,TGI,[27],> 100 µM
same,GI50,[28],3.09 µM
same,TGI,[28],> 100 µM
same,GI50,[29],2.77 µM
same,TGI,[29],> 100 µM
same,GI50,[30],2.47 µM
same,TGI,[30],> 100 µM
same,GI50,[31],0.78 µM
same,TGI,[31],> 100 µM
same,GI50,[32],1.46 µM
same,TGI,[32],8.37 µM
same,GI50,[33],> 100 µM
same,TGI,[33],> 100 µM
same,GI50,[34],> 100 µM
same,TGI,[34],> 100 µM
same,GI50,[35],4.91 µM
same,TGI,[35],> 100 µM
same,GI50,[36],4.6 µM
same,TGI,[36],> 100 µM
same,GI50,[37],5.8 µM
same,TGI,[37],> 100 µM
same,GI50,[38],7.33 µM
same,TGI,[38],> 100 µM
same,GI50,[39],0.987 µM
same,TGI,[39],5.31 µM
same,GI50,[40],2.7 µM
same,TGI,[40],> 100 µM
same,GI50,[41],5.52 µM
same,TGI,[41],> 100 µM
same,GI50,[42],> 100 µM
same,TGI,[42],> 100 µM
same,GI50,[43],1.51 µM
same,TGI,[43],> 100 µM
same,GI50,[44],27.9 µM
same,TGI,[44],> 100 µM
same,GI50,[45],7.24 µM
same,TGI,[45],> 100 µM
same,GI50,[46],8.37 µM
same,TGI,[46],> 100 µM
same,GI50,[47],3.26 µM
same,TGI,[47],> 100 µM
same,GI50,[48],0.911 µM
same,TGI,[48],> 100 µM
same,GI50,[49],16.8 µM
same,TGI,[49],> 100 µM
same,GI50,[50],36.6 µM
same,TGI,[50],> 100 µM
same,GI50,[51],3.95 µM
same,TGI,[51],> 100 µM
same,GI50,[52],36.6 µM
same,TGI,[52],> 100 µM
same,GI50,[53],1.32 µM
same,TGI,[53],> 100 µM
same,GI50,[54],> 100 µM
same,TGI,[54],> 100 µM
